Where two headings read alike, the source gives them in different places.
Key:
Z. tritici = test: Broth microdilution MIC and FIC index (CLSI protocol); assay type: cell-based
B. cinerea = test: as above; assay type: cell-based
E. amylovora = test: as above
P. syringae = test: as above; assay type: cell-based; conditions: triplicate
Excerpt: FIC index>1: no synergistic effect.

P. infestans = test: microbe, parasite or virus in culture; assay type: cell-based
[1] = E. amylovora, broth microdilution, triplicate

Molecule copper salicylate has an MIC (Z. tritici; Z. tritici, broth microdilution, triplicate) of 235 µg/mL and an MIC (B. cinerea; B. cinerea, broth microdilution, triplicate) of 60 µg/mL.

In the case of `[Cu+2].[OH-].[OH-]` [Copper hydroxide, copper hydroxide], the MIC (E. amylovora; [1]) is reported as 375 µg/mL.

copper anthranilate showed an MIC (E. amylovora; [1]) of 290 µg/mL and an MIC (P. syringae) of 590 µg/mL.

With `[Cl-].[Cu+2].[Cu+2].[OH-].[OH-].[OH-]` [Copper oxychloride, copper oxychloride] the MIC (P. infestans; P. infestans, broth microdilution, triplicate) was 3600 µg/mL.

In the case of `CCCCCCCC/C=C\CCCCCCCC(=O)[O-].[K+]` [Potassium oleate], the MIC (E. amylovora; Erwinia amylovora) is reported as 7.3 µg/mL, the MIC (P. infestans; Phytophthora infestans) is reported as 220 µg/mL and the MIC (P. syringae; Pseudomonas syringae, read-out: MIC) is reported as 30 µg/mL. For the same molecule, the MIC (Z. tritici; Zymoseptoria tritici) was 15100 µg/mL and the MIC (B. cinerea; Botrytis cinerea) was 3770 µg/mL.

Reference: patent US20180352816A1, “COMPOSITION FOR CROP CARE AND PROTECTION” (ALPHA BIOPESTICIDES LIMITED, priority 2015, published 2018)
